Laboratory results taken from patent US10294229B2, “Heteroaryl substituted aminopyridine compounds” (BRISTOL-MYERS SQUIBB COMPANY, priority 2015, dated 2019).

Molecular target: IRAK4 (Homo sapiens (Human), UniProt Q9NWZ3)
Experiment: IRAK4 Inhibition Assay
Type: biochemical
Settings: ATP 500 μM; IRAK4 0.6 nM
Experimental: The assays were performed in U-bottom 384-well plates. The final assay volume was 30 μL prepared from 15 μL additions of enzyme and substrates (fluoresceinated peptide and ATP) and test compounds in assay buffer (20 mM HEPES pH 7.2, 10 mM MgCl2, 0.015% Brij 35 and 4 mM DTT). The reaction was initiated by the combination of IRAK4 with substrates and test compounds. The reaction mixture was incubated at room temperature for 60 min. and terminated by adding 45 μL of 35 mM EDTA to each sample. The reaction mixture was analyzed on the Caliper LABCHIP® 3000 (Caliper, Hopkinton, Mass.) by electrophoretic separation of the fluorescent substrate and phosphorylated product. Inhibition data were calculated by comparison to no enzyme control reactions for 100% inhibition and vehicle-only reactions for 0% inhibition. The final concentrations of reagents in the assays are ATP, 500 μM; FL-IPTSPITTTYFFFKKK peptide 1.5 μM; IRAK4, 0.6 nM; and DMSO, 1.6%.

Chain of IRAK4 (Q9NWZ3 whole entry, species assumed): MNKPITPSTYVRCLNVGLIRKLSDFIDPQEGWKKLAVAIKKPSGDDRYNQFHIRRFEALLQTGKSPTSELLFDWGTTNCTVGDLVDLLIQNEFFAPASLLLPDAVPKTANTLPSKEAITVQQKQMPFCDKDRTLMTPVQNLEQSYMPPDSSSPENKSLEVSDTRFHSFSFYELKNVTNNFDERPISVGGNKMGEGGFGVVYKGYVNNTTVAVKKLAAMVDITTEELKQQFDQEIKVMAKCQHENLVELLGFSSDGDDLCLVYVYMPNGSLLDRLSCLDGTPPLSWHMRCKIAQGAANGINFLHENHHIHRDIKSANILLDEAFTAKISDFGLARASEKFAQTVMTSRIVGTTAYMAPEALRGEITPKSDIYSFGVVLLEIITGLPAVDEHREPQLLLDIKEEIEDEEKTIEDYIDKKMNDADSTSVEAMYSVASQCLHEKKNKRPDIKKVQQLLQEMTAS

IC50 [nM] | SMILES
3 | CCCn1cc(-c2cnc(-n3ncc4cc(C#N)c(N)nc43)cc2NC2CCOCC2)nn1 [Example 51, 6-amino-1-(5-(1-propyl-1H-1,2,3-triazol-4-yl)-4-((tetrahydro-2H-pyran-4-yl)amino)pyridin-2-yl)-1H-pyrazolo[3,4-b]pyridine-5-carbonitrile]
8 | CCCn1cc(-c2cnc(-n3cnc4cc(C#N)cnc43)cc2NCC)nn1 [Example 55, 3-(4-(ethylamino)-5-(1-propyl-1H-1,2,3-triazol-4-yl)pyridin-2-yl)-3H-imidazo[4,5-b]pyridine-6-carbonitrile]
93 | CCCn1cc(-c2cnc(-n3ncc4cc(C#N)cnc43)cc2Nc2cnn(CC)c2)nn1 [Example 58, 1-(4-((1-ethyl-1H-pyrazol-4-yl)amino)-5-(1-propyl-1H-1,2,3-triazol-4-yl)pyridin-2-yl)-1H-pyrazolo [3,4-b]pyridine-5-carbonitrile]
7 | CCCn1cc(-c2cnc(-n3cnc4cc(C#N)cnc43)cc2Nc2cnn(CC(F)F)c2)nn1 [Example 61, 3-(4-((1-(2,2-difluoroethyl)-1H-pyrazol-4-yl)amino)-5-(1-propyl-1H-1,2,3-triazol-4-yl)pyridin-2-yl)-3H-imidazo[4,5-b]pyridine-6-carbonitrile]
32 | CC(C)Nc1cc(-n2cnc3cc(C#N)cnc32)ncc1-c1cn(CC(C)(C)O)nn1 [Example 67, 3-(5-(1-(2-hydroxy-2-methylpropyl)-1H-1,2,3-triazol-4-yl)-4-(isopropylamino)pyridin-2-yl)-3H-imidazo[4,5-b]pyridine-6-carbonitrile]
14 | CC(C)Nc1cc(-n2cnc3cc(C#N)cnc32)ncc1-c1cn(C[C@@H](C)O)nn1 [Example 68, (R)-3-(5-(1-(2-hydroxypropyl)-1H-1,2,3-triazol-4-yl)-4-(isopropylamino)pyridin-2-yl)-3H-imidazo[4,5-b]pyridine-6-carbonitrile]
40 | CCNc1cc(-n2ncc3cc(C#N)cnc32)ncc1-c1cn(C[C@H](C)O)nn1 [Example 71, (S)-1-(4-(ethylamino)-5-(1-(2-hydroxypropyl)-1H-1,2,3-triazol-4-yl)pyridin-2-yl)-1H-pyrazolo[3,4-b]pyridine-5-carbonitrile]
52 | CCNc1cc(-n2cnc3cc(C#N)cnc32)ncc1-c1cn(C[C@H](C)O)nn1 [Example 72, (S)-3-(4-(ethylamino)-5-(1-(2-hydroxypropyl)-1H-1,2,3-triazol-4-yl)pyridin-2-yl)-3H-imidazo [4,5-b]pyridine-6-carbonitrile]
2 | CCOC(=O)Cn1cc(-c2cnc(-n3ncc4cc(C#N)cnc43)cc2NC(C)C)nn1 [Example 98, Ethyl 2-(4-(6-(5-cyano-1H-pyrazolo[3,4-b]pyridin-1-yl)-4-(isopropylamino)pyridin-3-yl)-1H-1,2,3-triazol-1-yl)acetate]
235 | CC(C)Nc1cc(-n2ncc3cc(C#N)cnc32)ncc1-c1cn(C2CN(C(c3ccccc3)c3ccccc3)C2)nn1 [Example 100, 1-(5-(1-(1-benzhydrylazetidin-3-yl)-1H-1,2,3-triazol-4-yl)-4-(isopropylamino)pyridin-2-yl)-1H-pyrazolo[3,4-b]pyridine-5-carbonitrile]
5 | CC(C)Nc1cc(-n2ncc3cc(C#N)cnc32)ncc1-c1cn(CC(=O)N2CCOCC2)nn1 [Example 101, 1-(4-(isopropylamino)-5-(1-(2-morpholino-2-oxoethyl)-1H-1,2,3-triazol-4-yl)pyridin-2-yl)-1H-pyrazolo[3,4-b]pyridine-5-carbonitrile]
172 | CC(C)Nc1cc(-n2ncc3cc(C#N)cnc32)ncc1-c1cn(-c2cccc(O)c2)nn1 [Example 103, 1-(5-(1-(3-hydroxyphenyl)-1H-1,2,3-triazol-4-yl)-4-(isopropylamino)pyridin-2-yl)-1H-pyrazolo[3,4-b]pyridine-5-carbonitrile]
399 | CC(C)Nc1cc(-n2ncc3cc(C#N)cnc32)ncc1-c1cn(-c2ccc(F)c(C#N)c2)nn1 [Example 104, 1-(5-(1-(3-cyano-4-fluorophenyl)-1H-1,2,3-triazol-4-yl)-4-(isopropylamino)pyridin-2-yl)-1H-pyrazolo[3,4-b]pyridine-5-carbonitrile]
55 | CC(C)Nc1cc(-n2ncc3cc(C#N)cnc32)ncc1-c1cn([C@@H]2O[C@H](CO)[C@H](O)[C@H](O)[C@H]2O)nn1 [Example 105, 1-(4-(isopropylamino)-5-(1-((2R,3R,4S,5R,6R)-3,4,5-trihydroxy-6-(hydroxymethyl)tetrahydro-2H-pyran-2-yl)-1H-1,2,3-triazol-4-yl)pyridin-2-yl)-1H-pyrazolo[3,4-b]pyridine-5-carbonitrile]
321 | Cc1nc2cc(Cn3cc(-c4cnc(-n5ncc6cc(C#N)cnc65)cc4NC(C)C)nn3)ccc2s1 [Example 106, 1-(4-(isopropylamino)-5-(1-((2-methylbenzo[d]thiazol-5-yl)methyl)-1H-1,2,3-triazol-4-yl)pyridin-2-yl)-1H-pyrazolo[3,4-b]pyridine-5-carbonitrile]
15 | CC(C)Nc1cc(-n2ncc3cc(C#N)cnc32)ncc1-c1cn(Cc2ccccc2)nn1 [Example 107, 1-(5-(1-benzyl-1H-1,2,3-triazol-4-yl)-4-(isopropylamino)pyridin-2-yl)-1H-pyrazolo[3,4-b]pyridine-5-carbonitrile]
35 | CC(C)Nc1cc(-n2ncc3cc(C#N)cnc32)ncc1-c1cn(Cc2nc3ccccc3[nH]2)nn1 [Example 108, 1-(5-(1-((1H-benzo[d]imidazol-2-yl)methyl)-1H-1,2,3-triazol-4-yl)-4-(isopropylamino)pyridin-2-yl)-1H-pyrazolo[3,4-b]pyridine-5-carbonitrile]
217 | CC(C)Nc1cc(-n2ncc3cc(C#N)cnc32)ncc1-c1cn(-c2ccc(F)cc2)nn1 [Example 109, 1-(5-(1-(4-fluorophenyl)-1H-1,2,3-triazol-4-yl)-4-(isopropylamino)pyridin-2-yl)-1H-pyrazolo[3,4-b]pyridine-5-carbonitrile]
75 | COc1ccc(Cn2cc(-c3cnc(-n4ncc5cc(C#N)cnc54)cc3NC(C)C)nn2)cc1 [Example 110, 1-(4-(isopropylamino)-5-(1-(4-methoxybenzyl)-1H-1,2,3-triazol-4-yl)pyridin-2-yl)-1H-pyrazolo[3,4-b]pyridine-5-carbonitrile]
13 | CC(C)Nc1cc(-n2ncc3cc(C#N)cnc32)ncc1-c1cn(-c2cccnc2C#N)nn1 [Example 111, 1-(5-(1-(2-cyanopyridin-3-yl)-1H-1,2,3-triazol-4-yl)-4-(isopropylamino)pyridin-2-yl)-1H-pyrazolo[3,4-b]pyridine-5-carbonitrile]
76 | CC(C)Nc1cc(-n2ncc3cc(C#N)cnc32)ncc1-c1cn(Cc2ccc(F)cc2)nn1 [Example 112, 1-(5-(1-(4-fluorobenzyl)-1H-1,2,3-triazol-4-yl)-4-(isopropylamino)pyridin-2-yl)-1H-pyrazolo[3,4-b]pyridine-5-carbonitrile]
33 | CC(C)Nc1cc(-n2ncc3cc(C#N)cnc32)ncc1-c1cn(-c2ccccc2)nn1 [Example 115, 1-(4-(isopropylamino)-5-(1-phenyl-1H-1,2,3-triazol-4-yl)pyridin-2-yl)-1H-pyrazolo[3,4-b]pyridine-5-carbonitrile]
51 | CC(C)Nc1cc(-n2ncc3cc(C#N)cnc32)ncc1-c1cn(CC2(O)CCN(C(=O)OC(C)(C)C)CC2)nn1 [Example 132, tert-butyl 4-((4-(6-(5-cyano-1H-pyrazolo[3,4-b]pyridin-1-yl)-4-(isopropylamino)pyridin-3-yl)-1H-1,2,3-triazol-1-yl)methyl)-4-hydroxypiperidine-1-carboxylate]
27 | COc1ccc(OCC(O)Cn2cc(-c3cnc(-n4ncc5cc(C#N)cnc54)cc3NC(C)C)nn2)cc1 (centres unmarked) [Example 136, 1-(5-(1-(2-hydroxy-3-(4-methoxyphenoxy)propyl)-1H-1,2,3-triazol-4-yl)-4-(isopropylamino)pyridin-2-yl)-1H-pyrazolo[3,4-b]pyridine-5-carbonitrile]
25 | CC(C)Nc1cc(-n2ncc3cc(C#N)cnc32)ncc1-c1cn(C2CNC2)nn1 [Example 138, 1-(5-(1-(azetidin-3-yl)-1H-1,2,3-triazol-4-yl)-4-(isopropylamino)pyridin-2-yl)-1H-pyrazolo[3,4-b]pyridine-5-carbonitrile]
6 | CC(=O)N1CC(n2cc(-c3cnc(-n4ncc5cc(Cl)cnc54)cc3NC(C)C)nn2)C1 [Example 155, 1-(3-(4-(6-(5-chloro-1H-pyrazolo[3,4-b]pyridin-1-yl)-4-(isopropylamino)pyridin-3-yl)-1H-1,2,3-triazol-1-yl)azetidin-1-yl)ethanone]
25 | CC(C)Nc1cc(-n2ncc3cc(Cl)cnc32)ncc1-c1cn(C)nn1 [Example 165, 2-(5-chloro-1H-pyrazolo[3,4-b]pyridin-1-yl)-N-isopropyl-5-(1-methyl-1H-1,2,3-triazol-4-yl)pyridin-4-amine]
24 | CC(C)Nc1cc(-n2ncc3cc(C#N)cnc32)ncc1-c1cn(C[C@@H](N)Cc2ccccc2)nn1 [Example 168, (S)-1-(5-(1-(2-amino-3-phenylpropyl)-1H-1,2,3-triazol-4-yl)-4-(isopropylamino)pyridin-2-yl)-1H-pyrazolo[3,4-b]pyridine-5-carbonitrile]
26 | CC(C)Nc1cc(-n2ncc3cc(C#N)cnc32)ncc1-c1cn(-c2ccccc2C#N)nn1 [Example 173, 1-(5-(1-(2-cyanophenyl)-1H-1,2,3-triazol-4-yl)-4-(isopropylamino)pyridin-2-yl)-1H-pyrazolo [3,4-b]pyridine-5-carbonitrile]
